This assay has as its target T1, human PAH with the R408W mutation (A375 R408W cells) (Homo sapiens, UniProt P00439, R408W).
T1 construct: expressed in transfected cells
T1 sequence (P00439 1-452 R408W): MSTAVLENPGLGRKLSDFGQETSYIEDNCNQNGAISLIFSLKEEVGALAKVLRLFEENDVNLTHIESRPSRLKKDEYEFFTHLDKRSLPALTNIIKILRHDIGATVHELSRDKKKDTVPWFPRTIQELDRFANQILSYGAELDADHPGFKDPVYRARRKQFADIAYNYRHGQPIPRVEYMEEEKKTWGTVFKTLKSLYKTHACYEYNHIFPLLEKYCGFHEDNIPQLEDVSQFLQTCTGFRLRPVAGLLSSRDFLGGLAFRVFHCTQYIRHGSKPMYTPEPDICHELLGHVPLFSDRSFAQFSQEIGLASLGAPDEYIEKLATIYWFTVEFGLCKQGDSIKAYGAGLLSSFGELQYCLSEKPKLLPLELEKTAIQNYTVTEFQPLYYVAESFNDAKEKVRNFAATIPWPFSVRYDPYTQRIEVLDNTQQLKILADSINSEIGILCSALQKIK
Description: Cell Based Phenylalanine Flux Assay. Particulars: 24 hrs with compound, then 20 μM sepiapterin and 800 μM 13C9,15N-Phenylalanine for 4 hours, 13C-Tyrosine by LC-MS, average where tested multiple times. A digest of the protocol: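 Phenylalanine-to-tyrosine flux is measured in A375 cells carrying stable human R408W PAH. After 24 h compound exposure, 13C9,15N-Phe (800 μM) with sepiapterin (20 μM) is supplied for 4 h and media 13C-Tyr is read by LC-MS; AC50s are binned.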

Where [1] appears, read: A375 cells expressing R408W PAH.

A value given as a limit tells only on which side of the number the result lay.

With `O=C(c1oc(-c2ccccn2)nc1C(F)F)N1CCc2[nH]cnc2[C@H]1c1nc2ccccc2o1` [Example 740, (S)-(4-(benzo[d]oxazol-2-yl)-6,7-dihydro-1H-imidazo[4,5-c]pyridin-5(4H)-yl)(4-(difluoromethyl)-2-(pyridin-2-yl)oxazol-5-yl)methanone], the AC50 (A375 R408W cells) is not above 500 nM.
Take `O=C(c1nnc(-c2cnn(C(F)F)c2)o1)N1CCc2[nH]cnc2C1c1nc2cccc(C(F)(F)F)c2o1` (centres unmarked): under setting [1], the AC50 was 1000 to 5000 nM.
In the case of `CN(C)C(C)(C)c1nc(C(F)F)c(C(=O)N2CCc3[nH]cnc3[C@@H]2c2nc3cc(F)ccc3o2)o1` [Example 292, (R)-(4-(difluoromethyl)-2-(2-(dimethylamino)propan-2-yl)oxazol-5-yl)(4-(5-fluorobenzo[d]oxazol-2-yl)-6,7-dihydro-1H-imidazo[4,5-c]pyridin-5(4H)-yl)methanone], the AC50 (A375 R408W cells) is not above 500 nM.
As for `CN(C)c1cn2ncc(C(=O)N3CCc4[nH]cnc4[C@H]3c3nc4cc(F)ccc4o3)c2cc1Cl` [Example 207, (S)-(5-chloro-6-(dimethylamino)pyrazolo[1,5-a]pyridin-3-yl)(4-(5-fluorobenzo[d]oxazol-2-yl)-6,7-dihydro-1H-imidazo[4,5-c]pyridin-5(4H)-yl)methanone], the AC50 (A375 R408W cells) is not above 500 nM.
`Cc1ccc2nc(C3c4nc[nH]c4CCN3C(=O)Cc3nncs3)oc2c1` (centres unmarked): the AC50 under setting [1] was in the range of 1000 to 5000 nM.
Regarding `Cc1ncoc1C(=O)N1CCc2[nH]cnc2[C@H]1c1nc2ccccc2o1` [Example 793, (S)-(4-(benzo[d]oxazol-2-yl)-6,7-dihydro-1H-imidazo[4,5-c]pyridin-5(4H)-yl)(4-methyloxazol-5-yl)methanone], the AC50 (A375 R408W cells) was not above 500 nM.
In the case of `Cc1nc(C(C)(C)O)oc1C(=O)N1CCc2[nH]cnc2C1c1nc2ccc(F)cc2o1` (centres unmarked), under setting [1], the AC50 is not below 5000 nM.
For the compound `Cn1cc(-c2ncc(C(=O)N3CCc4[nH]cnc4[C@H]3c3nc4cc(F)ccc4o3)s2)cn1` [Example 9, (S)-(4-(5-fluorobenzo[d]oxazol-2-yl)-6,7-dihydro-1H-imidazo[4,5-c]pyridin-5(4H)-yl)(2-(1-methyl-1H-pyrazol-4-yl)thiazol-5-yl)methanone], the AC50 (A375 R408W cells) was not above 500 nM.
Take `O=C(c1oc(C2(O)CC2)nc1C(F)F)N1CCc2[nH]cnc2[C@H]1c1nc2c(F)cccc2o1` [Example 215, (S)-(4-(difluoromethyl)-2-(1-hydroxycyclopropyl)oxazol-5-yl)(4-(4-fluorobenzo[d]oxazol-2-yl)-6,7-dihydro-1H-imidazo[4,5-c]pyridin-5(4H)-yl)methanone]: the AC50 (A375 R408W cells) fell in the range of 500 to 1000 nM.
With `COc1cc(F)cc2nc([C@@H]3c4nc[nH]c4CCN3C(=O)c3oc(C(C)(C)O)nc3C(F)F)oc12` [Example 715, (S)-(4-(difluoromethyl)-2-(2-hydroxypropan-2-yl)oxazol-5-yl)(4-(5-fluoro-7-methoxybenzo[d]oxazol-2-yl)-6,7-dihydro-1H-imidazo[4,5-c]pyridin-5(4H)-yl)methanone], the AC50 (A375 R408W cells) was not above 500 nM.
Regarding `O=C(c1oc(C2(O)CC2)nc1C(F)F)N1CCc2[nH]cnc2[C@@H]1c1nc2cccc(F)c2o1` [Example 213, (R)-(4-(difluoromethyl)-2-(1-hydroxycyclopropyl)oxazol-5-yl)(4-(7-fluorobenzo[d]oxazol-2-yl)-6,7-dihydro-1H-imidazo[4,5-c]pyridin-5(4H)-yl)methanone], the half-maximal activity concentration (AC50) (A375 R408W cells) fell in the range of 500 to 1000 nM.
With `O=C(c1oc(-c2ccncc2)nc1C(F)F)N1CCc2[nH]cnc2[C@H]1c1nc2cccc(F)c2o1` [Example 560, (S)-(4-(difluoromethyl)-2-(pyridin-4-yl)oxazol-5-yl)(4-(7-fluorobenzo[d]oxazol-2-yl)-6,7-dihydro-1H-imidazo[4,5-c]pyridin-5(4H)-yl)methanone], for the setting “A375 R408W cells”, the AC50 was not above 500 nM.
Turning to `Cn1nccc1-c1nnc(C(=O)N2CCc3[nH]cnc3[C@@H]2c2nc3cc(F)ccc3o2)o1` [Example 132, (R)-(4-(5-fluorobenzo[d]oxazol-2-yl)-6,7-dihydro-1H-imidazo[4,5-c]pyridin-5(4H)-yl)(5-(1-methyl-1H-pyrazol-5-yl)-1,3,4-oxadiazol-2-yl)methanone], the AC50 (A375 R408W cells) lay in the range of 1000 to 5000 nM.
Consider `Cc1ncoc1C(=O)N1CC2(CC2)c2[nH]cnc2C1c1nc2cc(F)ccc2o1` (centres unmarked), for which the AC50 under setting [1] was not below 5000 nM.
As to `C[C@@H](O)c1nc(C(F)F)c(C(=O)N2CCc3[nH]cnc3[C@H]2c2nc3cc(F)ccc3o2)o1` [Example 151, (4-(difluoromethyl)-2-((R)-1-hydroxyethyl)oxazol-5-yl)((S)-4-(5-fluorobenzo[d]oxazol-2-yl)-6,7-dihydro-1H-imidazo[4,5-c]pyridin-5(4H)-yl)methanone], the AC50 (A375 R408W cells) is not above 500 nM.
As to `Cc1nc([C@@H](C)O)oc1C(=O)N1CCc2[nH]cnc2[C@H]1c1nc2c(F)cccc2o1` [Example 210, ((S)-4-(4-fluorobenzo[d]oxazol-2-yl)-6,7-dihydro-1H-imidazo[4,5-c]pyridin-5(4H)-yl)(2-((R)-1-hydroxyethyl)-4-methyloxazol-5-yl)methanone], the AC50 (A375 R408W cells) was 500 to 1000 nM.
For `Cc1cccc2nc([C@H]3c4nc[nH]c4CCN3C(=O)c3cc(C(F)F)nn3C)oc12` [Example 736], the AC50 (A375 R408W cells) was in the range of 1000 to 5000 nM.
With `Cc1ccc2oc([C@@H]3c4nc[nH]c4CCN3C(=O)c3oc(-c4cncn4C)nc3C(F)F)nc2c1` [Example 758, (S)-(4-(difluoromethyl)-2-(1-methyl-1H-imidazol-5-yl)oxazol-5-yl)(4-(5-methylbenzo[d]oxazol-2-yl)-6,7-dihydro-1H-imidazo[4,5-c]pyridin-5(4H)-yl)methanone], the AC50 (A375 R408W cells) is not above 500 nM.
Regarding `Cc1nc(-c2ccn(C)n2)oc1C(=O)N1CCc2[nH]cnc2[C@@H]1c1nc2cc(F)ccc2o1` [Example 826, (R)-(4-(5-fluorobenzo[d]oxazol-2-yl)-6,7-dihydro-1H-imidazo[4,5-c]pyridin-5(4H)-yl)(4-methyl-2-(1-methyl-1H-pyrazol-3-yl)oxazol-5-yl)methanone], where the note is “A375 R408W cells”, the AC50 is not below 5000 nM.
For `O=C(c1oc(-c2ccc(C(F)(F)F)cn2)nc1C(F)F)N1CCc2[nH]cnc2[C@H]1c1nc2cccc(F)c2o1` [Example 633, (S)-(4-(difluoromethyl)-2-(5-(trifluoromethyl)pyridin-2-yl)oxazol-5-yl)(4-(7-fluorobenzo[d]oxazol-2-yl)-6,7-dihydro-1H-imidazo[4,5-c]pyridin-5(4H)-yl)methanone], the AC50 (A375 R408W cells) was not above 500 nM.
Same read-out and setting: the value for `O=C(c1oc(-c2ccncc2)nc1C(F)F)N1CCc2[nH]cnc2[C@@H]1c1nc2cc(F)ccc2o1` [Example 422, (R)-(4-(difluoromethyl)-2-(pyridin-4-yl)oxazol-5-yl)(4-(5-fluorobenzo[d]oxazol-2-yl)-6,7-dihydro-1H-imidazo[4,5-c]pyridin-5(4H)-yl)methanone] was 500 to 1000 nM; that for `O=C(c1cnn2cc(Br)ccc12)N1CCc2[nH]cnc2[C@@H]1c1nc2cc(F)ccc2o1` [Example 70, (R)-(6-bromopyrazolo[1,5-a]pyridin-3-yl)(4-(5-fluorobenzo[d]oxazol-2-yl)-6,7-dihydro-1H-imidazo[4,5-c]pyridin-5(4H)-yl)methanone] was 1000 to 5000 nM; that for `O=C(c1cnn2cc(N3CCN(C4CC4)CC3)ccc12)N1CCc2[nH]cnc2[C@@H]1c1nc2cc(F)ccc2o1` [Example 134, (R)-(6-(4-cyclopropylpiperazin-1-yl)pyrazolo[1,5-a]pyridin-3-yl)(4-(5-fluorobenzo[d]oxazol-2-yl)-6,7-dihydro-1H-imidazo[4,5-c]pyridin-5(4H)-yl)methanone] was not below 5000 nM.
Same read-out and setting: under `Cc1cccc2oc([C@@H]3c4nc[nH]c4CCN3C(=O)c3nc(C(F)F)nn3C)nc12` [Example 447, (S)-(3-(difluoromethyl)-1-methyl-1H-1,2,4-triazol-5-yl)(4-(4-methylbenzo[d]oxazol-2-yl)-6,7-dihydro-1H-imidazo[4,5-c]pyridin-5(4H)-yl)methanone] stands not above 500 nM.
In the case of `Cn1cnnc1C(=O)N1CCc2[nH]cnc2C1c1nc2ccc(F)cc2o1` (centres unmarked), under setting [1], the AC50 is not below 5000 nM.
In the case of `O=C(c1oc(C2(O)CC2)nc1C(F)F)N1CCc2[nH]cnc2[C@@H]1c1nc2c(F)cccc2o1` [Example 216, (R)-(4-(difluoromethyl)-2-(1-hydroxycyclopropyl)oxazol-5-yl)(4-(4-fluorobenzo[d]oxazol-2-yl)-6,7-dihydro-1H-imidazo[4,5-c]pyridin-5(4H)-yl)methanone], the AC50 (A375 R408W cells) is 1000 to 5000 nM.
Regarding `CC(C)(O)c1nc(Cl)c(C(=O)N2CCc3[nH]cnc3[C@H]2c2nc3cccc(F)c3o2)o1` [Example 272, (S)-(4-chloro-2-(2-hydroxypropan-2-yl)oxazol-5-yl)(4-(7-fluorobenzo[d]oxazol-2-yl)-6,7-dihydro-1H-imidazo[4,5-c]pyridin-5(4H)-yl)methanone], the AC50 (A375 R408W cells) was not above 500 nM.
In the case of `O=C(c1nnc(CCN2CC(F)C2)o1)N1CCc2[nH]cnc2C1c1nc2cc(F)ccc2o1` (centres unmarked), the AC50 under setting [1] is not below 5000 nM.
In the case of `Cn1ccc(-c2nnc(C(=O)N3CCc4[nH]cnc4[C@@H]3c3nc4ccc(F)cc4o3)o2)n1` [Example 322, (R)-(4-(6-fluorobenzo[d]oxazol-2-yl)-6,7-dihydro-1H-imidazo[4,5-c]pyridin-5(4H)-yl)(5-(1-methyl-1H-pyrazol-3-yl)-1,3,4-oxadiazol-2-yl)methanone], the AC50 (A375 R408W cells) is 1000 to 5000 nM.
